Key:
MM.1S = experiment: MTT cell viability assay, MM.1S; type: cell-based; details: Multiple Myeloma, 24 or 48 or 72 hours
Method: (§1) Briefly cancer cells incubated with Up compounds for the period of 24 or 48 or 72 hours and the cell viability was measured using MTT assay. IC50 of compounds listed in Table1.

RPMI8226 = experiment: MTT cell viability assay, RPMI8226; type: cell-based; details: RPMI8226, Multiple Myeloma, 24 or 48 or 72 hours
Method: as §1

RPMI8226-R = experiment: MTT cell viability assay, RPMI8226-R; type: cell-based; details: Multiple Myeloma, 24 or 48 or 72 hours
Method: as §1

ES2 = experiment: MTT cell viability assay, ES2; type: cell-based, human; details: ES2, Ovarian Cancer, 24 or 48 or 72 hours
Method: as §1

OVCAR3 = experiment: MTT cell viability assay, OVCAR3; type: cell-based; details: OVCAR3, Ovarian Cancer, 24 or 48 or 72 hours
Method: as §1

OVCAR5 = experiment: MTT cell viability assay, OVCAR5; type: cell-based; details: OVCAR5, Ovarian Cancer, 24 or 48 or 72 hours
Method: as §1

SKOV3 = experiment: MTT cell viability assay, SKOV3; type: cell-based; details: SKOV3, Ovarian Cancer, 24 or 48 or 72 hours
Method: as §1

SKOV3-TR = experiment: MTT cell viability assay, SKOV3-TR; type: cell-based
Method: as §1

A2780 = experiment: MTT cell viability assay, A2780; type: cell-based; details: A2780, Ovarian Cancer, 24 or 48 or 72 hours
Method: as §1

HS578T = experiment: MTT cell viability assay, HS578T; type: cell-based; details: Triple Negative Breast Cancer, 24 or 48 or 72 hours
Method: as §1

MDA-MB-231 = experiment: MTT cell viability assay, MDA-MB-231; type: cell-based; details: MDA-MB-231, Triple Negative Breast Cancer, 24 or 48 or 72 hours
Method: as §1

HeLa = experiment: MTT cell viability assay, HeLa; type: cell-based; details: Cervical Cancer, 24 or 48 or 72 hours
Method: as §1

HepG2 = experiment: MTT cell viability assay, HepG2; type: cell-based; details: HepG2, Liver Cancer, 24 or 48 or 72 hours
Method: as §1

[1] = test system: HFF(primary human foreskin fibroblast); experiment: MTT cell viability assay, HFF; type: cell-based; details: Normal Cell line, 24 or 48 or 72 hours
Method: as §1

OV2008 cancer cells = experiment: Colony formation, OV2008; type: cell-based; details: corresponding to IC50 values
A2780 cancer cells = experiment: Colony formation, A2780; type: cell-based; details: corresponding to IC50 values
[2] = test system: K48-linked polyubiquitinated proteins in HeLa cells; experiment: anti-K48-linked ubiquitin immunoblot in HeLa cells; type: cell-based; details: 4 hr treatment
Text: Accumulation of poly ubiquitinated proteins is a general phenomenon of proteasome inhibition. We examined the impact of these compounds on the levels of polyubiquitinated proteins in HeLa cells by anti-K48-linked ubiquitin immunoblot analysis.

[3] = test system: NFκB reporter in 293 cells; experiment: NFκB reporter assay in 293 cells stimulated with TNF-a; type: cell-based; details: 293 cells carrying NFκB reporter construct
Text: (§2) NFκB is constitutively activated in many cancers including high grade cervical intraepithelial neoplasia (CIN) and cervical cancer.

IkB-a in HeLa cells = experiment: IkB-a stabilization in HeLa cells with TNF-a; type: cell-based; details: in the presence of TNF-a
Text: as §2

RPN13 = target: T1, RPN13 (Homo sapiens, UniProt Q16186); experiment: RA190B probe competition assay, HeLa cell lysate; type: binding; details: HeLa cell lysate pretreated with compound
T1 construct: HeLa cell lysate was pretreated with Up109 or Up117; endogenous in cells; host or cells: HeLa cell lysate
Method: To identify the cellular target, a competition assay was performed using RA190B probe. […] We used RA190B as a probe to determine the Up compound binding to RPN13. HeLa cell lysate was pretreated with Up109 or Up117 and then subsequently treated with RA190B. Lysate was denatured under reduced conditions and proteins were separated on a gel and probed with HRPStreptavidin.

[4] = test system: CHOP-10 mRNA in ES2 cells; experiment: CHOP-10 mRNA expression in ES2 cells; type: cell-based, human; details: 12 h
Text: (§3) Accumulation of unfolded proteins upon the inhibition of proteasome function rapidly induces endoplasmic reticulum (ER) stress. ER stress triggers an evolutionarily conserved series of signal-transduction events, which constitute the unfolded protein response (UPR). The UPR attempts to restore protein homeostasis by eliminating the accumulated unfolded proteins in the ER; however, if protein homeostasis cannot be restored, apoptosis is triggered. C/EBP homologous protein (CHOP) is elevated at the onset of UPR-induced programmed cell death.

ES2 cells = experiment: Annexin-V staining by FACS of ES2 cells; type: cell-based, human; details: 12 h
Method: FIG. 8: (A) CHOP-10 quantification in ES2 cells treated with Up109 for 12 h; (B) Annexin-V staining by FACS analysis of ES2 cells treated with Up109 and Bortezomib for 12 h.
as §3

[5] = test system: proteasome (4UbFL reporter) in muscle cells; experiment: 4UbFL reporter in muscle of live mice, IVIS imaging; type: in vivo; details: Balb/c mice, i.p. 40 mg/Kg; imaged 4 h, 24 h and 48 h post treatment
Method: To test for proteasome inhibition by Up109 in vivo, muscle cells of live Balb/c mice transduced with the 4UbFL reporter DNA construct by electroporation. After i.p. injection of luciferin, the enzymic activity of luciferase in the transfected muscle tissue was visualized as bioluminescence using an IVIS imager. At two days post electroporation of the 4UbFL DNA, mice were imaged and base line luminescence recorded. The control group (n=5) of mice was treated i.p. with vehicle alone and another group (n=5) treated i.p with Up109 (40 mg/Kg). After 4 h, 24 h and 48 h post treatment mice were again imaged and luminescence was quantified (FIG. 9).

[6] = test system: human ovarian cancer ES2 xenograft (ES2-Lu); experiment: ES2-Lu ovarian cancer xenograft, intraperitoneal; type: in vivo; details: nude female mice, 10 mg/Kg on alternate days for two weeks
Method: To test the efficacy of Up109 to treat the human ovarian cancer ES2 xenograft model, the luciferase-expressing ES2 cells (ES2-Lu) were inoculated into peritoneal cavity of nude female mice (i.e. orthotopically). Two days after inoculation the mice were imaged for their basal luminescence activity and then randomized into two groups (n=10). First group was treated with the vehicle and the second group was treated with Up109 (10 mg/Kg) on alternate days for two weeks. Mice were imaged after the first and second week of treatment for their luciferase activity. […] Tumor burden in the vehicle group mice was excessive and sacrificed at the end of the treatment (FIG. 10).

T1 sequence (Q16186 whole entry): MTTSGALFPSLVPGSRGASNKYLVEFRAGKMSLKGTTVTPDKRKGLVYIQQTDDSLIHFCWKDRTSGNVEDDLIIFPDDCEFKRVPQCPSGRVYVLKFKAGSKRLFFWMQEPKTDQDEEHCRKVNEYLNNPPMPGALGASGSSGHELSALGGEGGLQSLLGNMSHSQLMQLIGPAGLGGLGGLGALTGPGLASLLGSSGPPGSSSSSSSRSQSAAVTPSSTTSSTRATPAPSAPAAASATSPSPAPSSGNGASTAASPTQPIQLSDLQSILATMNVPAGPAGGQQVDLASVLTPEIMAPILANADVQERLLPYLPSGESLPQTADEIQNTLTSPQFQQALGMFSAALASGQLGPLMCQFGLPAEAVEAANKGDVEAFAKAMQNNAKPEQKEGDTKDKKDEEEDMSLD

**Q.** With `C=CC(=O)N1CCC2(CC1)C(=Cc1ccc([N+](=O)[O-])cc1)C(=O)C2=Cc1ccc([N+](=O)[O-])cc1` [Up109] as the molecule, how does the IC50 (MM.1S) read?
**A.** 35 nM

**Q.** What about the IC50 (RPMI8226) of the same molecule?
**A.** 123 nM

**Q.** What about the IC50 (RPMI8226-R) of the same molecule?
**A.** 61 nM

**Q.** And the IC50 (ES2)?
**A.** 22 nM

**Q.** What about the IC50 (OVCAR3) of the same molecule?
**A.** 21 nM

**Q.** And the IC50 (OVCAR5)?
**A.** 19 nM

**Q.** What about the IC50 (SKOV3) of the same molecule?
**A.** 45 nM

**Q.** And the IC50 (SKOV3-TR; SKOV3-TR, Ovarian Cancer (taxol resistant), MTT, 24 or 48 or 72 hours)?
**A.** 58 nM

**Q.** And the “difference in activity between SKOV3 and its taxol resistant line (SKOV3-TR)” value (SKOV3-TR; SKOV3 vs SKOV3-TR)?
**A.** similarly active

**Q.** What about the IC50 (A2780) of the same molecule?
**A.** 13 nM

**Q.** And the IC50 (HS578T)?
**A.** 17 nM

**Q.** And the IC50 (MDA-MB-231)?
**A.** 38 nM

**Q.** And the IC50 (HeLa)?
**A.** 75 nM

**Q.** And the IC50 (HepG2)?
**A.** 118 nM

**Q.** And the IC50 [1]?
**A.** > 1250 nM

**Q.** And the colony formation (OV2008 cancer cells)?
**A.** significantly blocked colony formation

**Q.** What about the colony formation (A2780 cancer cells) of the same molecule?
**A.** significantly blocked colony formation

**Q.** And the “levels of K48-linked polyubiquitinated proteins” value [2]?
**A.** dramatically increased

**Q.** What about the “NFκB reporter activity after stimulation with TNF-a” value [3] of the same molecule?
**A.** significant dose-dependent decrease

**Q.** What about the “stabilization of IkB-a” value (IkB-a in HeLa cells) of the same molecule?
**A.** Stabilization of IkB-a was observed

**Q.** And the “competition with RA190B for binding to RPN13” value (RPN13)?
**A.** disappearance of RA190B labeling

**Q.** What about the “CHOP-10 mRNA expression” value [4] of the same molecule?
**A.** rapidly up-regulated

**Q.** What about the “Annexin-V positive cells (apoptosis)” value (ES2 cells) of the same molecule?
**A.** elevation of apoptosis

**Q.** What about the “4UbFL reporter stabilization in vivo (bioluminescence)” value [5] of the same molecule?
**A.** Stabilized

**Q.** What about the “weight loss and observable side effects” value [6] of the same molecule?
**A.** no weight loss and any observable side effects

**Q.** And the “tumor burden compared to the vehicle” value ([6]; ES2-Lu i.p.)?
**A.** significantly reduced the tumor burden

Source: US10947199B2, “Spiro and cyclic bis-benzylidene proteasome inhibitor for the treatment of cancer, diabetes and neurological disorders” (UP THERAPEUTICS, INC., priority 2017, dated 2021)
